From patent US20240383886A1, “Protein Tyrosine Phosphatase Degraders and Methods of Use Thereof” (CALICO LIFE SCIENCES LLC, priority 2019, published 2024)

Tests used:
PTPN2 [1] = assay: HiBiT-Degradation B16F10.4 PTPN2; format: cell-based; settings: B16F10.4 cells, 24.0 hours
PTPN2 [2] = molecular target: T1, PTPN2 (Homo sapiens, UniProt P17706); assay: HiBiT-Degradation 293T.109 PTPN2 (Nano-Glo HiBiT Lytic Assay); format: cell-based; settings: 293T.109 (HiBiT-PTPN2) cells, 24.0 hours
T1 construct: expressed in transfected cells; host or cells: 293T (293T.109 HiBiT-PTPN2 line; parental 293T WT from ATCC)
T1 sequence (P17706 1-415): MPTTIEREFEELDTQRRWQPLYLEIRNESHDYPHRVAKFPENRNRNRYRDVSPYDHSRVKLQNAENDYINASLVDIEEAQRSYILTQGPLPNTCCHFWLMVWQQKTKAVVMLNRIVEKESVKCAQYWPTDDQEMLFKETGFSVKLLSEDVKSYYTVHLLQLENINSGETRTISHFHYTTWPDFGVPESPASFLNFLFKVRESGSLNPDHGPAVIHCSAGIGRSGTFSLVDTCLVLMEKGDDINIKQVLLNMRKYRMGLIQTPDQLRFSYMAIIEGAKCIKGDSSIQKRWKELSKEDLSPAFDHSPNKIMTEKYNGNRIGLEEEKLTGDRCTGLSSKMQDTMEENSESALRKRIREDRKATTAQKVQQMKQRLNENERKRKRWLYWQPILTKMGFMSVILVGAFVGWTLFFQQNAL
How it was run: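 293T cells ectopically expressing N-terminally HiBiT-tagged PTPN2 were seeded at 5000 cells/well. They were treated with an 11-point half-log titration from 10 μM, in duplicate, for 24 hours at 37° C., 5% CO2. Remaining tagged PTPN2 was quantified by lytic HiBiT luminescence against untreated and no-reagent controls.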

Compound	DC50 (PTPN2 [1]) [µM]	DC50 (PTPN2 [2]) [µM]
O=C1CCC(Nc2ccc(C3CCN(CC(=O)Nc4ccc5c(F)c(N6CC(=O)NS6(=O)=O)c(O)cc5c4)CC3(F)F)cc2)C(=O)N1 (stereo not drawn) [Example 113, 2-[4-[4-[(2,6-dioxo-3-piperidyl)amino]phenyl]-3,3-difluoro-1-piperidyl]-N-[5-fluoro-7-hydroxy-6-(1,1,4-trioxo-1,2,5-thiadiazolidin-2-yl)-2-naphthyl]acetamide]	0.2 to 1	0.2 to 1
Cn1nc(C2CCC(=O)NC2=O)c2ccc(C3CCN(CC(=O)Nc4ccc5c(F)c(N6CC(=O)NS6(=O)=O)c(O)cc5c4)CC3(F)F)cc21 (stereo not drawn) [Example 114, N-(6-(1,1-dioxido-4-oxo-1,2,5-thiadiazolidin-2-yl)-5-fluoro-7-hydroxynaphthalen-2-yl)-2-(4-(3-(2,6-dioxopiperidin-3-yl)-1-methyl-1H-indazol-6-yl)-3,3-difluoropiperidin-1-yl)acetamide]	0.05 to 0.2	0.05 to 0.2
Cn1c(=O)n(C2CCC(=O)NC2=O)c2ccc(C3CCN(CC(=O)N4CC(c5ccc6c(F)c(N7CC(=O)NS7(=O)=O)c(O)cc6c5)C4)CC3)cc21 (stereo not drawn) [Example 115, 3-(5-(1-(2-(3-(6-(1,1-dioxido-4-oxo-1,2,5-thiadiazolidin-2-yl)-5-fluoro-7-hydroxynaphthalen-2-yl)azetidin-1-yl)-2-oxoethyl)piperidin-4-yl)-3-methyl-2-oxo-2,3-dihydro-1H-benzo[d]imidazol-1-yl)piperidine-2,6-dione]	0.2 to 1	0.2 to 1
Cn1c(=O)n(C2CCC(=O)NC2=O)c2ccc(-c3ccc(CCC(=O)Nc4ccc5c(F)c(N6CC(=O)NS6(=O)=O)c(O)cc5c4)cc3)cc21 (stereo not drawn) [Example 116, N-(6-(1,1-dioxido-4-oxo-1,2,5-thiadiazolidin-2-yl)-5-fluoro-7-hydroxynaphthalen-2-yl)-3-(4-(1-(2,6-dioxopiperidin-3-yl)-3-methyl-2-oxo-2,3-dihydro-1H-benzo[d]imidazol-5-yl)phenyl)propanamide]	0.05 to 0.2	0.05 to 0.2
Cn1nc(C2CCC(=O)NC2=O)c2ccc(C3CCN(C4CC(C(=O)Nc5ccc6c(F)c(N7CC(=O)NS7(=O)=O)c(O)cc6c5)C4)CC3(F)F)cc21 (stereo not drawn) [Example 117, N-(6-(1,1-dioxido-4-oxo-1,2,5-thiadiazolidin-2-yl)-5-fluoro-7-hydroxynaphthalen-2-yl)-3-(4-(3-(2,6-dioxopiperidin-3-yl)-1-methyl-1H-indazol-6-yl)-3,3-difluoropiperidin-1-yl)cyclobutanecarboxamide]	0.05 to 0.2	0.01 to 0.05
Cn1c(=O)n(C2CCC(=O)NC2=O)c2ccc(-c3ccc(CC(=O)Nc4ccc5c(F)c(N6CC(=O)NS6(=O)=O)c(O)cc5c4)cc3F)cc21 (stereo not drawn) [Example 118, N-(6-(1,1-dioxido-4-oxo-1,2,5-thiadiazolidin-2-yl)-5-fluoro-7-hydroxynaphthalen-2-yl)-2-(4-(1-(2,6-dioxopiperidin-3-yl)-3-methyl-2-oxo-2,3-dihydro-1H-benzo[d]imidazol-5-yl)-3-fluorophenyl)acetamide]	0.01 to 0.05	0.05 to 0.2
Cn1c(=O)n(C2CCC(=O)NC2=O)c2ccc(C3CCN(CC(=O)N4CC=C(c5ccc6cc(O)c(N7CC(=O)NS7(=O)=O)c(F)c6c5)CC4)CC3)cc21 (stereo not drawn) [Example 119, 3-[5-[1-[2-[4-[8-fluoro-6-hydroxy-7-(1,1,4-trioxo-1,2,5-thiadiazolidin-2-yl)-2-naphthyl]-3,6-dihydro-2H-pyridin-1-yl]-2-oxo-ethyl]-4-piperidyl]-3-methyl-2-oxo-benzimidazol-1-yl]piperidine-2,6-dione]	0.05 to 0.2	0.01 to 0.05

Other lines, results leading:

DC50 (PTPN2 [1]) [µM]	DC50 (PTPN2 [2]) [µM]	Compound
0.05 to 0.2	0.01 to 0.05	Cn1c(=O)n(C2CCC(=O)NC2=O)c2ccc(C3CCN(CC(=O)N4CCC(c5ccc6cc(O)c(N7CC(=O)NS7(=O)=O)c(F)c6c5)CC4)CC3)cc21 (stereo not drawn) [Example 120, 3-[5-[1-[2-[4-[8-fluoro-6-hydroxy-7-(1,1,4-trioxo-1,2,5-thiadiazolidin-2-yl)-2-naphthyl]-1-piperidyl]-2-oxo-ethyl]-4-piperidyl]-3-methyl-2-oxo-benzimidazol-1-yl]piperidine-2,6-dione]
0.05 to 0.2	0.01 to 0.05	Cn1c(=O)n(C2CCC(=O)NC2=O)c2ccc(C3CCN(CCN4CC=C(c5ccc6cc(O)c(N7CC(=O)NS7(=O)=O)c(F)c6c5)CC4)CC3)cc21 (stereo not drawn) [Example 121, 3-[5-[1-[2-[4-[8-fluoro-6-hydroxy-7-(1,1,4-trioxo-1,2,5-thiadiazolidin-2-yl)-2-naphthyl]-3,6-dihydro-2H-pyridin-1-yl]ethyl]-4-piperidyl]-3-methyl-2-oxo-benzimidazol-1-yl]piperidine-2,6-dione]
0.2 to 1	0.01 to 0.05	Cn1c(=O)n(C2CCC(=O)NC2=O)c2ccc(C3CCN(CCn4cc(-c5ccc6c(F)c(N7CC(=O)NS7(=O)=O)c(O)cc6c5)cn4)CC3)cc21 (stereo not drawn) [Example 122, 3-[5-[1-[2-[4-[5-fluoro-7-hydroxy-6-(1,1,4-trioxo-1,2,5-thiadiazolidin-2-yl)-2-naphthyl]pyrazol-1-yl]ethyl]-4-piperidyl]-3-methyl-2-oxo-benzimidazol-1-yl]piperidine-2,6-dione]
0.05 to 0.2	0.01 to 0.05	Cn1c(=O)n(C2CCC(=O)NC2=O)c2ccc(C3CCN(CCN4CCC(c5ccc6cc(O)c(N7CC(=O)NS7(=O)=O)c(F)c6c5)CC4)CC3)cc21 (stereo not drawn) [Example 123, 3-[5-[1-[2-[4-[8-fluoro-6-hydroxy-7-(1,1,4-trioxo-1,2,5-thiadiazolidin-2-yl)-2-naphthyl]-1-piperidyl]ethyl]-4-piperidyl]-3-methyl-2-oxo-benzimidazol-1-yl]piperidine-2,6-dione]
0.2 to 1	0.2 to 1	Cn1c(=O)n(C2CCC(=O)NC2=O)c2ccc(N3CCC(CC(=O)N4CCC(c5ccc6cc(O)c(N7CC(=O)NS7(=O)=O)c(F)c6c5)CC4)CC3)cc21 (stereo not drawn) [Example 124, 3-[5-[4-[2-[4-[8-fluoro-6-hydroxy-7-(1,1,4-trioxo-1,2,5-thiadiazolidin-2-yl)-2-naphthyl]-1-piperidyl]-2-oxo-ethyl]-1-piperidyl]-3-methyl-2-oxo-benzimidazol-1-yl]piperidine-2,6-dione]
0.2 to 1	0.05 to 0.2	Cn1c(=O)n(C2CCC(=O)NC2=O)c2ccc(C3CCN(Cc4cnn(-c5ccc6cc(O)c(N7CC(=O)NS7(=O)=O)c(F)c6c5)c4)CC3)cc21 (stereo not drawn) [Example 125, 3-[5-[1-[[1-[8-fluoro-6-hydroxy-7-(1,1,4-trioxo-1,2,5-thiadiazolidin-2-yl)-2-naphthyl]pyrazol-4-yl]methyl]-4-piperidyl]-3-methyl-2-oxo-benzimidazol-1-yl]piperidine-2,6-dione]
0.2 to 1	0.2 to 1	Cn1c(=O)n(C2CCC(=O)NC2=O)c2ccc(Nc3ccc(C(=O)NCCOc4ccc5cc(O)c(N6CC(=O)NS6(=O)=O)c(F)c5c4)cc3)cc21 (stereo not drawn) [Example 126, 4-[[1-(2,6-dioxo-3-piperidyl)-3-methyl-2-oxo-benzimidazol-5-yl]amino]-N-[2-[[8-fluoro-6-hydroxy-7-(1,1,4-trioxo-1,2,5-thiadiazolidin-2-yl)-2-naphthyl]oxy]ethyl]benzamide]
0.2 to 1	0.05 to 0.2	Cn1c(=O)n(C2CCC(=O)NC2=O)c2ccc(N3CCC(CC(=O)N4CC=C(c5ccc6cc(O)c(N7CC(=O)NS7(=O)=O)c(F)c6c5)CC4)CC3)cc21 (stereo not drawn) [Example 127, 3-[5-[4-[2-[4-[8-fluoro-6-hydroxy-7-(1,1,4-trioxo-1,2,5-thiadiazolidin-2-yl)-2-naphthyl]-3,6-dihydro-2H-pyridin-1-yl]-2-oxo-ethyl]-1-piperidyl]-3-methyl-2-oxo-benzimidazol-1-yl]piperidine-2,6-dione]
0.2 to 1	0.05 to 0.2	Cn1c(=O)n(C2CCC(=O)NC2=O)c2ccc(C3CCN(CCCCOc4ccc5cc(O)c(N6CC(=O)NS6(=O)=O)c(F)c5c4)CC3)cc21 (stereo not drawn) [Example 128, 3-[5-[1-[4-[[8-fluoro-6-hydroxy-7-(1,1,4-trioxo-1,2,5-thiadiazolidin-2-yl)-2-naphthyl]oxy]butyl]-4-piperidyl]-3-methyl-2-oxo-benzimidazol-1-yl]piperidine-2,6-dione]
0.05 to 0.2	0.05 to 0.2	Cn1c(=O)n(C2CCC(=O)NC2=O)c2ccc(C3CCN(CC(=O)Nc4ccc5c(F)c(N6CC(=O)NS6(=O)=O)c(O)cc5c4)CC3(F)F)cc21 (stereo not drawn) [Example 129, 2-[4-[1-(2,6-dioxo-3-piperidyl)-3-methyl-2-oxo-benzimidazol-5-yl]-3,3-difluoro-1-piperidyl]-N-[5-fluoro-7-hydroxy-6-(1,1,4-trioxo-1,2,5-thiadiazolidin-2-yl)-2-naphthyl]acetamide]
0.05 to 0.2	0.05 to 0.2	Cn1c(=O)n(C2CCC(=O)NC2=O)c2ccc(C3CCN(CC(=O)N4CCC[C@@H](COc5ccc6cc(O)c(N7CC(=O)NS7(=O)=O)c(F)c6c5)C4)CC3)cc21 (stereo partly drawn) [Example 130, 3-[5-[1-[2-[(3R)-3-[[8-fluoro-6-hydroxy-7-(1,1,4-trioxo-1,2,5-thiadiazolidin-2-yl)-2-naphthyl]oxymethyl]-1-piperidyl]-2-oxo-ethyl]-4-piperidyl]-3-methyl-2-oxo-benzimidazol-1-yl]piperidine-2,6-dione]
